Results taken from patent publication US20070105878A1, “Purine formulations and methods for managing disorders” (priority 2005, published 2007).

Tests used:
Assay type in all cases: in vivo, mouse
[1] = system: CD1: ICR mice; assay: tail suspension test in mice
Source text: There are a number of animal models of depression that are used to identify pharmacological agents that have clinical potential as anti-depressant agents. One such animal model is the mouse tail-suspension model. Mice, suspended by the tail, will rapidly develop behavioral despair that is characterized by immobility. This immobility is thought to reflect a state of lowered ‘mood’ (i.e., depression) in which animals have given up hope of escaping.
(§1) In both assays, antidepressants increase the amount of struggle and the latency until the first extended immobility. These assays are considered to be good predictors for antidepressant activity and identifies nearly all antidepressant classes including tricyclics, SSRIs, 5-HT1A receptor agonists, and MAOIs.
(§2) CD1: ICR mice from Harlan 12 weeks of age. Animals were dosed with Compound 112, 30 minutes prior to tail suspension analysis or forced swim test.
For the tail suspension test, a clip was attached to each mouse tail. Mice (2 per run) were suspended from the pressure transducer in an isolated plexiglass tail suspension chamber. Thirty seconds after suspending the mouse from the transducer, struggle activity was monitored via the transducer that was connected to a computer. The following parameters were measured: 1) number of despair events lasting 5 seconds or longer; 2) Total time in despair; and average time in despair. Data were averaged and analyzed by ANOVA followed by a post-hoc Tukey's test with a p value of less then […] indicating a statistical difference.

[2] = system: CD1: ICR mice; assay: forced swim test in mice
Experimental: FIG. 2 illustrates forced swim test in mice. Mice are administered illustrative compounds of the invention and subjected to the forced swim test for 6 minutes with activity timed for the duration of the test. Compound 112 was administered 30 minutes prior to the swim test.
The forced swim test is another commonly used animal model for detecting anti-depressant activity of pharmacological agents. This test is complimentary to the tail suspension test. When mice are required to swim in a container with no route of escape they develop a behavioral despair that is characterized by immobility except for small movements needed to remain afloat. This immobility is thought to reflect a state of lowered ‘mood’ (i.e., depression) in which animals have given up hope of escaping. Forced swim test immobility is attenuated by a variety of clinically active antidepressants.
as §1, §2

[3] = system: Male C57/B16 mice; assay: experimental autoimmune encephalomyelitis (EAE), animal model of multiple sclerosis, open-field analysis; details: daily administration at 6 and 30 mg/kg
Source text: Experimental autoimmune encephalomyelitis (EAE) is an animal model of multiple sclerosis. This model is produced by administering a myelin basic protein peptide (MBP) fragment that induces an autoimmune response directed to the myelin sheath surrounding motor neurons. Demyelination of neurons within the CNS leads to impaired locomotor function and mirrors symptoms of the human disease. The disease, and the model, appears in exacerbations and remissions and is characterized by loss of nerve conduction and chronic progression of disability. In this study, we assessed the progression of locomotor dysfunction in mice subjected to EAE and treated with an illustrative compound of the invention.
Male C57/B16 mice (Harlan Sprague Dawley, Indianapolis, Ind.) 8 weeks of age were used for these studies. […]
Open-field assessments were conducted on days 7, 14, 21 and 28. Mice were evaluated by activity in an open-field activity monitor (Med-Associates-OFA ENV-510). Mice were place in the activity monitor for 15 minutes and a variety of open-field behaviors were monitored including distance traveled, ambulatory time, rearing behavior, time in center of field and stereotypic behavior. Data were averaged and analyzed by ANOVA followed by a post-hoc Tukey's test with a p value of less then […] indicating a statistical difference.

[4] = system: Male CD1 mice; assay: colonic propulsion assay (glass bead expulsion test); details: for increase of expulsion time from controls: subcutaneous, 30 minutes prior to glass bead expulsion test
Source text: The gastrointestinal transit model described in this report is a method for evaluating a test compounds ability to alter colonic propulsive motility. This model is designed to identify pharmacological agents that produce inhibitory effects on propulsive motor activity and is an excellent predictor of drugs that may be useful for the therapy of irritable bowel syndrome. This model can be modified to identify antagonists of constipative drugs or diarrhea producing drugs. In this study, Compound 112 was tested for its ability to affect colonic transport.
Male CD1 mice (Harlan) 12 weeks of age were used for this study. Mice were kept on a 12 hr light dark cycle and fed ad libitum.
Compound 112 was administered 30 minutes prior to the colonic propulsion study. After dosing, a 3 mm glass bead was inserted through the anus to a depth of 2 cm into the distal colon using a pre-measured plastic rod. […] A cutoff of 30 minutes was used. Data are expressed as the average ±SEM for each treatment. Data were averaged and analyzed by ANOVA followed by a post-hoc Tukey's test with a p value of less then […] indicating a statistical difference.
Compound 112 was compared to morphine, topfisopam, propentofylline, pentoxyfylline, and theophylline in the colonic propulsion assay. Drugs were administered subcutaneously at the indicated doses 30 minutes prior to the colonic propulsion assay.

[5] = system: Male CD1 mice; assay: micturition model of overactive bladder; details: 1 hr period after furesomide
Source text: Micturition is a model of overactive bladder and is achieved through complex neurological mechanisms involving somatic, autonomic and central components. Disorders of micturition can roughly be classified as disturbances of bladder storage or of emptying. Failure to store urine may lead to various forms of incontinence, the main forms of which are urge and stress incontinence. Antimuscarinics are the mainstay of pharmacological treatment of the overactive bladder syndrome, which is characterized by urgency, frequency, and urge incontinence. The present study describes the activity of Compound 112 in an animal model of incontinence.
Male CD1 mice (Harlan Sprague Dawley, Indianapolis, Ind.) 12 weeks of age were used for these studies. This study was multiplexed with the pulmonary inflammation study. Animals were housed five per cage, kept on a standard 12 hr light cycle. Sample size was 6 animals per group.
Mice were injected with Compound 112 or vehicle solution as described, and then injected with 1 ml of water (s.c). Furesomide (SigmaAldrich) was formulated at a concentration of 1 mg/ml in water and injected ip at a volume of 10 ml/kg within 5 minutes after drug and water administration. […] Data were averaged and analyzed by ANOVA followed by a post-hoc Tukey's test with a p value of […] indicating a statistical difference.

[6] = system: mice; assay: acetylcholine writhing assay
Experimental: Experiments were conducted to collect data in an animal model that reflects the gastrointestinal pain component of IBS. In this model, mice were injected intraperitoneally with acetylcholine. Acetylcholine evokes contractions of smooth muscle in the gastrointestinal tract. These contractions are painful and are expressed as a writhing response. Two measurements are made in this model: 1) time to onset of writhing and 2) total writhing time. In these studies, mice were treated with Compound 112 prior to acetylcholine administration and time to onset and total time writhing were measured.
Compound 112 was tested for its ability to attenuate acetylcholine induce writhing. The anti-writhing response was compared to propentofylline, pentoxyfylline and theophylline. All drugs were administered subcutaneously 30 minutes prior to acetylcholine administration. Acetylcholine was administered at a dose of 3 mg/kg (IP). Acetylcholine writhing was measured for a 10 minute time period. Time to onset and total writhing time were recorded.
Compound 112 was administered via both routes 30 minutes prior to acetylcholine administration. Acetylcholine was administered at a dose of 3 mg/kg (IP). Acetylcholine writhing was measured for a 10 minute time period. Time to onset and total writhing time were recorded.

[7] = subcutaneous, 30 minutes prior to acetylcholine 3 mg/kg IP

How did the “number of despair events” value ([1]; 6 mg/kg, dosed 30 minutes before test) turn out when `CCOCn1cnc2c1c(=O)n(CCCCC(C)(C)O)c(=O)n2C` [Compound 112] was run?
Its value is “reduced”.

What about the despair time ([1]; 6 and 30 mg/kg, dosed 30 minutes before test) of the same molecule?
The despair time was “significantly decreased”.

What about the anti-depressant activity ([1]; higher doses (≧30 mg/kg)) of the same molecule?
The anti-depressant activity was “lost”.

What about the antidepressant activity ([1]; lower doses (6 and 10 mg/kg)) of the same molecule?
Its antidepressant activity is “observed”.

What about the anti-depressant activity ([2]; higher doses (≧30 mg/kg)) of the same molecule?
The anti-depressant activity was “lost”.

What about the antidepressant activity ([2]; lower doses (6 and 10 mg/kg)) of the same molecule?
Its antidepressant activity is “observed”.

What about the “development of locomotor dysfunction” value [3] of the same molecule?
Its value is “significantly attenuated”.

What about the “expulsion of a colonically inserted glass bead” value ([4]; 30 and 100 mg/kg, 30 minutes after administration) of the same molecule?
Its value is “significantly slowed”.

And the “extension of expulsion time” value ([4]; 30 and 100 mg/kg, vs vehicle)?
The value was > 5 fold.

What about the “increase of expulsion time from controls” value [4] of the same molecule?
Its value is 5 fold.

And the “number of urination events” value [5]?
Its value is “significantly reduced”.

And the urinary volume [5]?
Its urinary volume is “significantly reduced”.

And the “potency, oral vs subcutaneous administration” value ([6]; 30 minutes prior to acetylcholine 3 mg/kg IP)?
The value was “significantly more potent”.

And the “activity on onset time” value ([6]; SC, 30 mg/kg)?
The value was “produced activity”.

And the “activity on onset time” value ([6]; oral, 10 mg/kg)?
The value was “significant activity”.

What about the “activity on acetylcholine induced writhing” value [6, 7] of the same molecule?
The value was “had activity”.

What about the “overall potency vs theophylline, pentoxyfylline and propentofylline” value [6, 7] of the same molecule?
Its value is “more potent”.

What about the “potency in attenuating writhing time vs propentofylline, pentoxyfylline and theophylline” value [6, 7] of the same molecule?
The value was “significantly more potent”.

And the “potency in delaying onset of writhing vs propentofylline, pentoxyfylline and theophylline” value [6, 7]?
The value was “significantly more potent”.

For `CC(=O)CCCCn1c(=O)c2c(ncn2C)n(C)c1=O` [pentoxyfylline, reference compound], which “activity on acetylcholine induced writhing” value [6, 7] is on record?
Its value is “had activity”.

Which “activity on acetylcholine induced writhing” value [6, 7] does the source give for `CCCn1cnc2c1c(=O)n(CCCCC(C)=O)c(=O)n2C` [propentofylline, reference compound] here?
Its value is “had activity”.

How did the “activity on acetylcholine induced writhing” value [6, 7] turn out when `Cn1c(=O)c2[nH]cnc2n(C)c1=O` [theophylline, reference compound] was run?
Its value is “had activity”.

For `CCC1C(C)=NN=C(c2ccc(OC)c(OC)c2)c2cc(OC)c(OC)cc21` (centres unmarked) [tofisopam, reference compound], which “increase of expulsion time from controls” value [4] is on record?
Its value is “less than 3 fold”.
